From US20240246967A1, “AXL COMPOUNDS” (ARCUS BIOSCIENCES, INC., priority 2021, published 2024)

Molecular target: T1, human TYRO3 (Homo sapiens, UniProt Q06418)
T1 construct: purchased Invitrogen
T1 sequence (Q06418 41-890): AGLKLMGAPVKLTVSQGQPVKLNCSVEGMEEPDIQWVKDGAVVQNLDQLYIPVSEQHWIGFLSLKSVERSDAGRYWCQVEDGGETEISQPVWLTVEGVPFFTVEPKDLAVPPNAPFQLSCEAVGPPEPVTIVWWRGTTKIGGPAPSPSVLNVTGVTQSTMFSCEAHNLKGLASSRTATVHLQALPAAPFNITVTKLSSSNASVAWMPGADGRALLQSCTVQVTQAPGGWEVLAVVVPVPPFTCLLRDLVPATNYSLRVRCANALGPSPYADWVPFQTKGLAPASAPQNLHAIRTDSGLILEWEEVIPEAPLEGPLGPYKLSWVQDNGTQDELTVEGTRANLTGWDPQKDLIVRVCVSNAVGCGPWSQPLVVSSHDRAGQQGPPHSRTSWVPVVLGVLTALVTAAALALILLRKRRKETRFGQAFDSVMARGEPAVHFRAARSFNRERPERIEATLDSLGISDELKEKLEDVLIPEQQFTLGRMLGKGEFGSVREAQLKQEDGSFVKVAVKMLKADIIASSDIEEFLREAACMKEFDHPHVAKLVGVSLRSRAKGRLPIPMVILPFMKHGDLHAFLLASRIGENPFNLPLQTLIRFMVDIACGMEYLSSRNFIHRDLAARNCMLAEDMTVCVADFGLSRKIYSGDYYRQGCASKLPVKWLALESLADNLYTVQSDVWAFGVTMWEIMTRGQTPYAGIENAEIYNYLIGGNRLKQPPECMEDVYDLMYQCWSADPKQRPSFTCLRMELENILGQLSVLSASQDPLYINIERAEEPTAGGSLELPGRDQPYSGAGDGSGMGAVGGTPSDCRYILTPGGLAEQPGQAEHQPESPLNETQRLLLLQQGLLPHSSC
Experiment: HTRF KinEASE-TK biochemical potency assay, TYRO3
Conditions: 1 nM TYRO3, 700 μM ATP, 800 nM TK Substrate-biotin
Procedure, shortened: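 HTRF 665/620 nm read-out after streptavidin-XL665/anti-phosphotyrosine cryptate detection (1 h RT). Final reaction: 5 nM AXL or 1 nM TYRO3/MER, 800 nM TK substrate-biotin, 700 μM ATP, pH 7.4 HEPES buffer, 1% DMSO, 2 h RT, after 1 h enzyme–compound preincubation.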

Structure (SMILES) | IC50 [nM]
C[C@@H]1CCCN1C1(C)CCc2ccc(-c3cnc4[nH]nc(-c5cnc(C(C)(C)O)c(Cl)c5)c4c3)cc2CC1 (stereo partly drawn) [Example 98, 2-[3-Chloro-5-(5-{7-methyl-7-[(2R)-2-methylpyrrolidin-1-yl]-6,7,8,9-tetrahydro-5H-benzo[7]annulen-2-yl}-1H-pyrazolo[3,4-b]pyridin-3-yl)pyridin-2-yl]propan-2-ol] | 100 to 1000
C[C@@H]1CCCN1C1(C)CCc2ccc(-c3cnc4[nH]nc(-c5ccc(C(=O)N[C@@H]6CCOC6)cc5)c4c3)cc2CC1 (stereo partly drawn) [Example 99, 4-(5-{7-Methyl-7-[(2R)-2-methylpyrrolidin-1-yl]-6,7,8,9-tetrahydro-5H-benzo[7]annulen-2-yl}-1H-pyrazolo[3,4-b]pyridin-3-yl)-N-[(3R)-oxolan-3-yl]benzamide] | > 1000
CCS(=N)(=O)c1ccc(-c2n[nH]c3ncc(-c4ccc5c(c4)CCC(C)(N4CCC[C@H]4C)CC5)cc23)cc1 (stereo partly drawn) [Example 100, Ethyl(imino)[4-(5-{7-methyl-7-[(2R)-2-methylpyrrolidin-1-yl]-6,7,8,9-tetrahydro-5H-benzo[7]annulen-2-yl}-1H-pyrazolo[3,4-b]pyridin-3-yl)phenyl]-λ^6-sulfanone] | 100 to 1000
C[C@@H]1CCCN1[C@H]1CCc2cc(-c3cnc4[nH]nc(-c5ccc(S(=O)(=O)C6CC6)cc5)c4c3)cnc2CC1 [Example 102, (2R)-1-[(7S)-3-{3-[4-(Cyclopropanesulfonyl)phenyl]-1H-pyrazolo[3,4-b]pyridin-5-yl}-5H,6H,7H,8H,9H-cyclohepta[b]pyridin-7-yl]-2-methylpyrrolidine] | > 1000
COC1CCN(S(=O)(=O)c2ccc(-c3n[nH]c4ncc(-c5ccc6c(c5)CCC(C)(N5CCC[C@H]5C)CC6)cc34)cc2)CC1 (stereo partly drawn) [Example 103, 3-(4-((4-Methoxypiperidin-1-yl)sulfonyl)phenyl)-5-(7-methyl-7-((R)-2-methylpyrrolidin-1-yl)-6,7,8,9-tetrahydro-5H-benzo[7]annulen-2-yl)-1H-pyrazolo[3,4-b]pyridine] | 100 to 1000
C[C@@H]1CCCN1C1(C)CCc2ccc(-c3cnc4[nH]nc(-c5ccc(S(=O)(=O)N6CCC6)cc5)c4c3)cc2CC1 (stereo partly drawn) [Example 104, (2R)-1-(2-{3-[4-(Azetidine-1-sulfonyl)phenyl]-1H-pyrazolo[3,4-b]pyridin-5-yl}-7-methyl-6,7,8,9-tetrahydro-5H-benzo[7]annulen-7-yl)-2-methylpyrrolidine] | < 100
C[C@@H]1CCCN1C1(C)CCc2ccc(-c3cnc4[nH]cc(-c5ccc(S(=O)(=O)C6CC6)cc5)c4c3)cc2CC1 (stereo partly drawn) [Example 105, (2R)-1-(2-{3-[4-(Cyclopropanesulfonyl)phenyl]-1H-pyrrolo[2,3-b]pyridin-5-yl}-7-methyl-6,7,8,9-tetrahydro-5H-benzo[7]annulen-7-yl)-2-methylpyrrolidine] | 100 to 1000
C[C@@H]1CCCN1C1(C)CCc2ccc(-c3cnc4[nH]nc(-c5ccc(N6CCOCC6)cc5)c4c3)cc2CC1 (stereo partly drawn) [Example 107, 4-[4-(5-{7-Methyl-7-[(2R)-2-methylpyrrolidin-1-yl]-6,7,8,9-tetrahydro-5H-benzo[7]annulen-2-yl}-1H-pyrazolo[3,4-b]pyridin-3-yl)phenyl]morpholine] | 100 to 1000
COc1cc(-c2n[nH]c3ncc(-c4ccc5c(c4)CCC(C)(N4CCC[C@H]4C)CC5)cc23)ccc1OC[C@H]1COCCO1 (stereo partly drawn) [Example 114, (2R)-1-{2-[3-(4-{[(2R)-1,4-Dioxan-2-yl]methoxy}-3-methoxyphenyl)-1H-pyrazolo[3,4-b]pyridin-5-yl]-7-methyl-6,7,8,9-tetrahydro-5H-benzo[7]annulen-7-yl}-2-methylpyrrolidine] | 100 to 1000
C[C@@H]1CCCN1C1(C)CCc2ccc(-c3cnc4[nH]nc(-c5ccc(C(=O)N[C@H]6CCOC6)cc5)c4c3)cc2CC1 (stereo partly drawn) [Example 117, 4-(5-{7-Methyl-7-[(2R)-2-methylpyrrolidin-1-yl]-6,7,8,9-tetrahydro-5H-benzo[7]annulen-2-yl}-1H-pyrazolo[3,4-b]pyridin-3-yl)-N-[(3S)-oxolan-3-yl]benzamide] | > 1000
Cc1cc(-c2n[nH]c3ncc(-c4ccc5c(c4)CCN(C4CC4)CC5)cc23)ccc1C(=O)N1CCNCC1 [Example 119, 3-Cyclopropyl-7-{3-[3-methyl-4-(piperazine-1-carbonyl)phenyl]-1H-pyrazolo[3,4-b]pyridin-5-yl}-2,3,4,5-tetrahydro-1H-3-benzazepine] | < 100
CC1(N2CCc3ccc(-c4cnc5[nH]nc(-c6ccc(S(=O)(=O)C7CC7)cc6)c5c4)cc3CC2)CCCC1 [Example 120, 7-{3-[4-(Cyclopropanesulfonyl)phenyl]-1H-pyrazolo[3,4-b]pyridin-5-yl}-3-(1-methylcyclopentyl)-2,3,4,5-tetrahydro-1H-3-benzazepine] | 100 to 1000

Second part, the compound after the results:

IC50 [nM] | Structure (SMILES)
100 to 1000 | C[C@@H]1CCCN1C1CCc2ccc(-c3cnc4[nH]nc(-c5ccc(C(C)(C)O)cn5)c4c3)cc2CC1 (stereo partly drawn) [Example 97, 2-[6-(5-{7-[(2R)-2-Methylpyrrolidin-1-yl]-6,7,8,9-tetrahydro-5H-benzo[7]annulen-2-yl}-1H-pyrazolo[3,4-b]pyridin-3-yl)pyridin-3-yl]propan-2-ol]
100 to 1000 | C[C@@H]1CCCN1[C@@H]1CCc2cc(-c3cnc4[nH]nc(-c5ccc(S(=O)(=O)C6CC6)cc5)c4c3)cnc2CC1 [Example 101, (2R)-1-(3-{3-[4-(Cyclopropanesulfonyl)phenyl]-1H-pyrazolo[3,4-b]pyridin-5-yl}-5H,6H,7H,8H,9H-cyclohepta[b]pyridin-7-yl)-2-methylpyrrolidine]
100 to 1000 | COCCNCc1ccc(-c2n[nH]c3ncc(-c4ccc5c(c4)CCC(C)(N4CCC[C@H]4C)CC5)cc23)cc1 (stereo partly drawn) [Example 108, (2-Methoxyethyl)({[4-(5-{7-methyl-7-[(2R)-2-methylpyrrolidin-1-yl]-6,7,8,9-tetrahydro-5H-benzo[7]annulen-2-yl}-1H-pyrazolo[3,4-b]pyridin-3-yl)phenyl]methyl})amine]
100 to 1000 | C[C@@H]1CCCN1C1CCc2ccc(-c3cnc4[nH]nc(-c5ccc(S(=O)(=O)C6CC6)cc5)c4c3)cc2C(C)(C)C1 (stereo partly drawn) [Example 109, (2R)-1-(2-{3-[4-(Cyclopropanesulfonyl)phenyl]-1H-pyrazolo[3,4-b]pyridin-5-yl}-9,9-dimethyl-6,7,8,9-tetrahydro-5H-benzo[7]annulen-7-yl)-2-methylpyrrolidine]
100 to 1000 | COCCOc1ccc(-c2n[nH]c3ncc(-c4ccc5c(c4)CCC(C)(N4CCC[C@H]4C)CC5)cc23)cc1 (stereo partly drawn) [Example 110, 3-(4-(2-Methoxyethoxy)phenyl)-5-(7-methyl-7-((R)-2-methylpyrrolidin-1-yl)-6,7,8,9-tetrahydro-5H-benzo[7]annulen-2-yl)-1H-pyrazolo[3,4-b]pyridine]
< 100 | COCCS(=O)(=O)c1ccc(-c2n[nH]c3ncc(-c4ccc5c(c4)CCC(C)(N4CCC[C@H]4C)CC5)cc23)cc1 (stereo partly drawn) [Example 111, (2R)-1-(2-{3-[4-(2-Methoxyethanesulfonyl)phenyl]-1H-pyrazolo[3,4-b]pyridin-5-yl}-7-methyl-6,7,8,9-tetrahydro-5H-benzo[7]annulen-7-yl)-2-methylpyrrolidine]
100 to 1000 | O=C([C@@H]1CCCN1)N1CCc2ccc(-c3cnc4[nH]nc(-c5ccc(S(=O)(=O)C6CC6)cc5)c4c3)cc2CC1 [Example 112, 7-{3-[4-(Cyclopropanesulfonyl)phenyl]-1H-pyrazolo[3,4-b]pyridin-5-yl}-3-[(2S)-pyrrolidine-2-carbonyl]-2,3,4,5-tetrahydro-1H-3-benzazepine]
100 to 1000 | O=C([C@H]1CCCN1)N1CCc2ccc(-c3cnc4[nH]nc(-c5ccc(S(=O)(=O)C6CC6)cc5)c4c3)cc2CC1 [Example 113, 7-{3-[4-(Cyclopropanesulfonyl)phenyl]-1H-pyrazolo[3,4-b]pyridin-5-yl}-3-[(2R)-pyrrolidine-2-carbonyl]-2,3,4,5-tetrahydro-1H-3-benzazepine]
100 to 1000 | CC1(N[C@H]2CCOC2)CCc2ccc(-c3cnc4[nH]nc(-c5ccc(S(=O)(=O)C6CC6)cc5)c4c3)cc2CC1 (stereo partly drawn) [Example 115, (3S)-N-(2-{3-[4-(Cyclopropanesulfonyl)phenyl]-1H-pyrazolo[3,4-b]pyridin-5-yl}-7-methyl-6,7,8,9-tetrahydro-5H-benzo[7]annulen-7-yl)oxolan-3-amine]
> 1000 | C[C@@H]1CCCN1C1(C)CCc2ccc(-c3cnc4[nH]nc(-c5ccc(C(=O)N6CCCC6)cc5)c4c3)cc2CC1 (stereo partly drawn) [Example 118, (2R)-2-Methyl-1-(7-methyl-2-{3-[4-(pyrrolidine-1-carbonyl)phenyl]-1H-pyrazolo[3,4-b]pyridin-5-yl}-6,7,8,9-tetrahydro-5H-benzo[7]annulen-7-yl)pyrrolidine]
